In patent US10562891B2, “Quinazolinones as PARP14 inhibitors” (Ribon Therapeutics Inc., priority 2017, dated 2020) one finds IC50 data, which are given here for 39 molecules.

Structures can show the parent of a compound that is named as a salt. Some results are limits rather than exact numbers.

catalytic domain of human PARP14, sequence (Q460N5 1611-1801): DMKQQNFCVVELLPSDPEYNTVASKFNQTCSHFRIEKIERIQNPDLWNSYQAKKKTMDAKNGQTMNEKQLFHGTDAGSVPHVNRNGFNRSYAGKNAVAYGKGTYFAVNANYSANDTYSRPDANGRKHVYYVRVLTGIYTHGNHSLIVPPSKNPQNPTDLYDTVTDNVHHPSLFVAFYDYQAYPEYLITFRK

The test deals with catalytic domain of human PARP14 (Homo sapiens (Human), UniProt Q460N5). In words: Enzymatic assay for inhibition of PARP14 (DELFIA, auto-modification with biotin-NAD). It counts as biochemical. Particulars: auto-modification of PARP14 by biotin-NAD, 50 nM PARP14, 3 μM biotin-NAD. The method in brief:
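DELFIA auto-modification read-out: europium-streptavidin bound to biotin-NAD incorporated onto nickel-captured His-TEV PARP14 catalytic domain. Compound preincubated 30 min, then 50 nM enzyme with 3 μM biotin-NAD reacted 3 h, all at 25 °C, pH 8, then NAD quench. Percent inhibition normalized to rucaparib/DMSO wells, fitted (4- or 3-parameter) for IC50.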
Turning to `O=c1[nH]c(CSC2CCCCC2)nc2cc(NC3CCCC3)c(F)c(F)c12` [Example 310, 2-((Cyclohexylthio)methyl)-7-(cyclopentylamino)-5,6-difluoroquinazolin-4(3H)-one], the IC50 (commonly the concentration at which inhibition is half-maximal) was below 1000 nM.

For `O=c1[nH]c(CSC2CCOCC2)nc2cc(NC3CCN(CC(F)(F)F)CC3)cc(F)c12` [Example 288, 5-Fluoro-2-(((tetrahydro-2H-pyran-4-yl)thio)methyl)-7-((1-(2,2,2-trifluoroethyl)piperidin-4-yl)amino)quinazolin-4(3H)-one], the IC50 is below 1000 nM.

In turn, `CO[C@H]1C[C@@H](Nc2cc3nc(CS[C@H]4CC[C@](C)(O)CC4)[nH]c(=O)c3c(F)c2F)C1` [Example 374] gave an IC50 below 1000 nM.

Regarding `O=c1[nH]c(CSC2CCNCC2)nc2cc(OCC3CC3)ccc12` [Example 275, 7-(Cyclopropylmethoxy)-2-((piperidin-4-ylthio)methyl)quinazolin-4(3H)-one], the IC50 was below 1000 nM.

`O=c1[nH]c(CSC2CCOCC2)nc2cc(NC3CCOC3)ccc12` (stereo not drawn) [Example 121, 2-(((Tetrahydro-2H-pyran-4-yl)thio)methyl)-7-((tetrahydrofuran-3-yl)amino)quinazolin-4(3H)-one] yielded a concentration for half-maximal inhibition (IC50) below 1000 nM.

Turning to `O=c1[nH]c(CS[C@H]2CC[C@@H](O)CC2)nc2cc(Nc3ccccc3)ccc12` [Example 99, 2-(((cis-4-Hydroxycyclohexyl)thio)methyl)-7-(phenylamino)quinazolin-4(3H)-one], the IC50 was in the range of 1000 to 10000 nM.

Turning to `O=c1[nH]c(CSC2CCOCC2)nc2ccncc12` [Example 40, 2-(((Tetrahydro-2H-pyran-4-yl)thio)methyl)pyrido[4,3-d]pyrimidin-4(3H)-one], the half-maximal inhibitory concentration (IC50) is above 10000 nM.

In turn, `O=c1[nH]c(CSC2CCCNCC2)nc2cc(NC3CCCC3)ccc12` (stereo not drawn) [Example 190, 2-((azepan-4-ylthio)methyl)-7-(cyclopentylamino)quinazolin-4(3H)-one] registered an IC50 below 1000 nM.

Regarding `CC1(SCc2nc3cc(OCC4CCOCC4)cc(F)c3c(=O)[nH]2)CCOCC1` [Example 358], the IC50 is below 1000 nM.

`COc1ccc2nc(CSC3CCOCC3)[nH]c(=O)c2c1` [Example 4] showed an IC50 above 10000 nM.

As for `O=c1[nH]c(CS[C@H]2CCNC[C@@H]2F)nc2cc(NC3CCCC3)cc(F)c12` (relative stereo) [Example 210, 7-(Cyclopentylamino)-5-fluoro-2-(((trans-3-fluoropiperidin-4-yl)thio)methyl)quinazolin-4(3H)-one Hydrochloride], the IC50 is below 1000 nM.

`O=c1[nH]c(CS[C@H]2CC[C@H](O)CC2)nc2cc(OC[C@H]3CCOC3)cc(F)c12` [Example 325b, 5-Fluoro-2-((((trans)-4-hydroxycyclohexyl)thio)methyl)-7-(((S)-tetrahydrofuran-3-yl)methoxy)quinazolin-4(3H)-one] returned an IC50 below 1000 nM.

Take `O=c1[nH]c(CSC2CCOCC2)nc2cc(OCC3CCN(CCC(F)(F)F)CC3)cc(F)c12` [Example 298, 5-Fluoro-2-(((tetrahydro-2H-pyran-4-yl)thio)methyl)-7-((1-(3,3,3-trifluoropropyl)piperidin-4-yl)methoxy)quinazolin-4(3H)-one]: the IC50 is below 1000 nM.

In turn, `O=c1[nH]c(CS[C@H]2CC[C@H](O)CC2)nc2cc(NC3CCCC3)c(F)c(F)c12` [Example 313, 7-(Cyclopentylamino)-5,6-difluoro-2-(((trans-4-hydroxycyclohexyl)thio)methyl)quinazolin-4(3H)-one] showed an IC50 below 1000 nM.

The molecule `Cc1cc(NC2CCCC2)cc2nc(CSC3CCOCC3)[nH]c(=O)c12` [Example 203, 7-(Cyclopentylamino)-5-methyl-2-(((tetrahydro-2H-pyran-4-yl)thio)methyl) quinazolin-4(3H)-one] returned an IC50 below 1000 nM.

In turn, `O=c1[nH]c(CSC2CCOCC2)nc2cc(OCC3CCOCC3)cc(Cl)c12` [Example 353] showed an IC50 below 1000 nM.

Molecule `O=C(CO)N1CCC(SCc2nc3cc(NC4CCCC4)cc(F)c3c(=O)[nH]2)CC1` [Example 214, 7-(Cyclopentylamino)-5-fluoro-2-(((1-(2-hydroxyacetyl)piperidin-4-yl)thio)methyl)quinazolin-4(3H)-one] registered an IC50 below 1000 nM.

As to `O=c1[nH]c(CSC2CCOCC2)nc2cc(CCC3CCCCC3)cc(F)c12` [Example 368], the IC50 lay in the range of 1000 to 10000 nM.

`O=c1[nH]c(CSC2CCOCC2)nc2cc(NC3CCCC3)c(F)c(F)c12` [Example 294, 7-(Cyclopentylamino)-5,6-difluoro-2-(((tetrahydro-2H-pyran-4-yl)thio)methyl)quinazolin-4(3H)-one] displayed an IC50 below 1000 nM.

On to `CCC(=O)N1CCC(COc2cc(F)c3c(=O)[nH]c(CSC4CCOCC4)nc3c2)CC1` [Example 398], for which the IC50 was below 1000 nM.

Regarding `Cc1cccc2c(=O)[nH]c(CSC3CCN(C(=O)[C@H](N)CCCCN)CC3)nc12` [Example 172, 2-(((1-(D-Lysyl)piperidin-4-yl)thio)methyl)-8-methylquinazolin-4(3H)-one Dihydrochloride], the IC50 is below 1000 nM.

Molecule `CC(Nc1ccc2c(=O)[nH]c(CSC3CCOCC3)nc2c1)c1ccccc1` (stereo not drawn) [Example 120, 7-((1-Phenylethyl)amino)-2-(((tetrahydro-2H-pyran-4-yl)thio)methyl)quinazolin-4(3H)-one] came in with an IC50 above 10000 nM.

For the molecule `Cc1cc(Nc2ccc3c(=O)[nH]c(CSC4CCOCC4)nc3c2)on1` [Example 192, 7-((3-methylisoxazol-5-yl)amino)-2-(((tetrahydro-2H-pyran-4-yl)thio)methyl)quinazolin-4(3H)-one], the IC50 was below 1000 nM.

In turn, `CN1CC[C@@H](COc2cc(F)c3c(=O)[nH]c(CS[C@H]4CC[C@H](O)CC4)nc3c2)[C@H](F)C1` [Example 335a, 5-fluoro-7-(((3S,4S)-3-fluoro-1-methylpiperidin-4-yl)methoxy)-2-((((trans)-4-hydroxycyclohexyl)thio)methyl)quinazolin-4(3H)-one] had an IC50 below 1000 nM.

`Cc1c(F)ccc2c(=O)[nH]c(CSC3CCOCC3)nc12` [Example 33, 7-Fluoro-8-methyl-2-(((tetrahydro-2H-pyran-4-yl)thio)methyl)quinazolin-4(3H)-one] yielded an IC50 below 1000 nM.

`O=c1[nH]c(CSC2CCOCC2)nc2cc(OCC3CCCOC3)cc(F)c12` (stereo not drawn) [Example 319, 5-Fluoro-7-((tetrahydro-2H-pyran-3-yl)methoxy)-2-(((tetrahydro-2H-pyran-4-yl)thio)methyl)quinazolin-4(3H)-one] showed an IC50 below 1000 nM.

Molecule `C[C@]1(O)CC[C@H](SCc2nc3cc(OCC4CCOC4)cc(F)c3c(=O)[nH]2)CC1` (stereo partly drawn) [Example 373] displayed an IC50 below 1000 nM.

For `CN1CCCC(Nc2ccc3c(=O)[nH]c(CSC4CCOCC4)nc3c2)C1` (stereo not drawn) [Example 133, 7-((1-Methylpiperidin-3-yl)amino)-2-(((tetrahydro-2H-pyran-4-yl)thio)methyl)quinazolin-4(3H)-one], the IC50 is above 10000 nM.

The molecule `CS(=O)(=O)N1CCC[C@@H](Nc2cc(F)c3c(=O)[nH]c(CSC4CCOCC4)nc3c2)C1` [Example 250, (R)-5-fluoro-7-((1-(methylsulfonyl)piperidin-3-yl)amino)-2-(((tetrahydro-2H-pyran-4-yl)thio)methyl)quinazolin-4(3H)-one] had an IC50 below 1000 nM.

For `Cc1cccc2c(=O)[nH]c(CSC3CCC(N(C)C)CC3)nc12` (stereo not drawn) [Example 21, 2-(((4-(Dimethylamino)cyclohexyl)thio)methyl)-8-methylquinazolin-4(3H)-one], the IC50 is below 1000 nM.

Take `Cc1cccc2c(=O)[nH]c(CS[C@H]3CC[C@H](CN(C)C)CC3)nc12` [Example 69, 2-(((trans-4-((Dimethylamino)methyl)cyclohexyl)thio)methyl)-8-methyl quinazolin-4(3H)-one Trifluoroacetate]: the IC50 is below 1000 nM.

`O=c1[nH]c(CSC2CCS(=O)(=O)CC2)nc2cc(NCC3CCC3)c(F)c(F)c12` [Example 339] came in with an IC50 below 1000 nM.

In turn, `Cc1cccc2c(=O)[nH]c(CS[C@@H]3CCC[C@H](CO)O3)nc12` (relative stereo) [Example 260, 2-(((Cis-6-(hydroxymethyl)tetrahydro-2H-pyran-2-yl)thio)methyl)-8-methylquinazolin-4(3H)-one] had an IC50 above 10000 nM.

The molecule `O=c1[nH]c(CS[C@H]2CC[C@H](O)CC2)nc2cc(NC3CCC3)ccc12` [Example 194, 7-(cyclobutylamino)-2-((((1R,4R)-4-hydroxycyclohexyl)thio)methyl)quinazolin-4(3H)-one] registered an IC50 below 1000 nM.

`Cc1ccnc2c(=O)[nH]c(CSC3CCOCC3)nc12` [Example 41, 8-Methyl-2-(((tetrahydro-2H-pyran-4-yl)thio)methyl)pyrido[3,2-d]pyrimidin-4(3H)-one] returned an IC50 above 10000 nM.

Take `O=c1[nH]c(CS[C@H]2CC[C@H](CO)CC2)nc2cc(Nc3ccccc3)ccc12` [Example 104, 2-(((trans-4-(Hydroxymethyl)cyclohexyl)thio)methyl)-7-(phenylamino) quinazolin-4(3H)-one]: the IC50 lay within 1000 to 10000 nM.

As to `O=c1[nH]c(CSC2CCOCC2)nc2cc(Nc3nccs3)ccc12` [Example 89, 2-(((Tetrahydro-2H-pyran-4-yl)thio)methyl)-7-(thiazol-2-ylamino)quinazolin-4(3H)-one], the IC50 lay within 1000 to 10000 nM.

`O=C(Nc1ccccc1)c1ccc2c(=O)[nH]c(CSC3CCOCC3)nc2c1` [Example 78, 4-Oxo-N-phenyl-2-(((tetrahydro-2H-pyran-4-yl)thio)methyl)-3,4-dihydro Quinazoline-7-carboxamide]: the IC50 is above 10000 nM.

`NC(=O)C[C@H]1CC[C@H](SCc2nc3cc(NC4CCCC4)cc(F)c3c(=O)[nH]2)CC1` [Example 286, 2-(Trans-4-(((7-(cyclopentylamino)-5-fluoro-4-oxo-3,4-dihydroquinazolin-2-yl)methyl)thio)cyclohexyl)acetamide] gave an IC50 below 1000 nM.
